Marks after values point to notes of the source that are not given here.
How the values were obtained:
[1] = test system: rats with beta-amyloid induced senile dementia; test: Step-down test, beta-amyloid induced senile dementia rats; type: in vivo, rat; conditions: 2.8 mg/kg, P<0.05
[2] = test system: rats with common carotid artery occlusion-induced vascular dementia; test: Water maze test, common carotid artery occlusion-induced vascular dementia rats; type: in vivo, rat; conditions: for adopted strategy for reaching the platform (the peripheral type and the random type %) / orientation angle for reaching the platform / speed for reaching the platform / swimming path length for reaching the platform / time for reaching the platform / Average speed / Number of crossing the platform / Orientation angle / Swimming path length in the platform area/total swimming path length × 100% / Time in the platform area / Time in the platform quadrants: succinate; for orientation angle for reaching the platform / speed for reaching the platform / swimming path length for reaching the platform / time for reaching the platform: x ± s
Description: A rat blood vessel dementia model was made according to the references [ZHAO Xian-lin, FANG Xiu-bin, LI Dong-pei. Establishment of Vascular Dementia Model in Rats, J Chin Med Univ, 2002, 31 (3): 166-168; WANG Yong-yan, Zhang Bo-li, Editor-in-chief. Modern Chinese Medicine Clinic and Research on Vascular Dementia, People's Medical Publishing House, October 2003, First Version 214]: Chloral hydrate 0.4 g/kg was intraperitoneally injected for anesthetizing rats, and bilateral common carotid arteries were isolated and ligated. The animals were fed for 16 weeks, divided into groups on the last 7 days, and administered. The normal control group and the model group were administrated through the intragastric route with distilled water by 0.5 ml/100 g, the positive control group was administrated through the intragastric route with donepezil hydrochloride by 1.75 mg/kg (equivalent to 3.85 times the clinical daily dosage of 5 mg/70 kg), the low, medium and high-dose groups of Crystal Form A of octahydroaminoacridine succinate were administrated through the intragastric route with Crystal Form A of octahydroaminoacridine succinate by 0.7, 1.4 and 2.8 mg/kg (equivalent to 0.96, 1.92 and 3.85 times the clinical daily dosage of 8 mg/70 kg). The water maze test and the step-down test were carried out after continuous administration for 7 days, and the administration was continued during the test period. The water maze test was continuously performed for 7 days, in the first 6 days, in four different water entry points of quadrants 1, 2, 3 and 4, the time, the swimming path length, the orientation angle and the average speed of the rat reaching the platform were measured, meanwhile, the strategy for reaching the platform adopted by rats was observed, on the 7th day, the platform was removed, the number of rats crossing the platform in 2 minutes, the residence time in the platform area, the residence time in the platform quadrants, the percentage of the swimming path length in the platform area quadrants to the total swimming path length, the average speed and the orientation angle were measured. After the water maze test was finished, the step-down test was performed, and the number of electric shocks (or called as the error number) received by each rat within 5 minutes was recorded as the learning performance. The test was performed again after 24 hours, namely, the memory retention test, and the latent period for stepping-down the platform for the first time and the error number in five minutes were recorded. After the step-down test was finished, the brain was taken quickly for pathological examination, and the pathological changes of the hippocampus and the cortex were observed.

[3] = Acute toxicity LD50, rat; conditions: in vivo, po
[4] = test system: rat; test: Acute toxicity LD50, rat; conditions: clinical daily dosage 8 mg/60 kg human/day, per kilogram body weight
[5] = Day 1, 0.7 mg/kg intragastric, 0.7 mg/kg
[6] = Day 1, 1.4 mg/kg intragastric, 1.4 mg/kg
[7] = Day 1, 2.8 mg/kg intragastric, 2.8 mg/kg
[8] = Day 2, 0.7 mg/kg intragastric, 0.7 mg/kg
[9] = Day 2, 1.4 mg/kg intragastric, 1.4 mg/kg
[10] = Day 2, 2.8 mg/kg intragastric, 2.8 mg/kg
[11] = Day 3, 0.7 mg/kg intragastric, 0.7 mg/kg
[12] = Day 3, 1.4 mg/kg intragastric, 1.4 mg/kg
[13] = Day 3, 2.8 mg/kg intragastric, 2.8 mg/kg
[14] = Day 4, 0.7 mg/kg intragastric, 0.7 mg/kg
[15] = Day 4, 1.4 mg/kg intragastric, 1.4 mg/kg
[16] = Day 4, 2.8 mg/kg intragastric, 2.8 mg/kg
[17] = Day 5, 0.7 mg/kg intragastric, 0.7 mg/kg
[18] = Day 5, 1.4 mg/kg intragastric, 1.4 mg/kg
[19] = Day 5, 2.8 mg/kg intragastric, 2.8 mg/kg
[20] = Day 6, 0.7 mg/kg intragastric, 0.7 mg/kg
[21] = Day 6, 1.4 mg/kg intragastric, 1.4 mg/kg
[22] = Day 6, 2.8 mg/kg intragastric, 2.8 mg/kg
[23] = Day 7, 0.7 mg/kg intragastric, 0.7 mg/kg
[24] = Day 7, 1.4 mg/kg intragastric, 1.4 mg/kg
[25] = Day 7, 2.8 mg/kg intragastric, 2.8 mg/kg

SMILES: Nc1c2c(nc3c1CCCC3)CCCC2.O=C(O)CCC(=O)O [Crystal Form A, 9-amino-1,2,3,4,5,6,7,8-octahydroacridine succinate]
- step-down error number vs model group ([1]; Day 1 and Day 2): obviously reduced
- error latency vs model group ([1]; Day 2): obviously prolonged
- swimming path length for reaching the platform vs model group ([2]; 1.4 mg/kg, Day 4, P<0.05): obviously shortened
- latent period for reaching the platform vs model group ([2]; 1.4 mg/kg, Day 4 to Day 6, P<0.05 or P<0.01): obviously shortened
- swimming path length for reaching the platform vs model group ([2]; 2.8 mg/kg, Day 3, P<0.05): obviously shortened
- latent period for reaching the platform vs model group ([2]; 2.8 mg/kg, Day 3 to Day 6, P<0.05 or P<0.01): obviously shortened
- orientation angle and swimming speed vs model group ([2]; 0.7, 1.4 and 2.8 mg/kg, Day 1 to Day 6): not obviously changed
- residence time in the platform quadrants, average speed, orientation angle and percentage of the swimming path length in the platform area quadrants to the total swimming path length vs model group ([2]; 0.7, 1.4 and 2.8 mg/kg, Day 7): not obviously changed
- number of rats crossing the platform within 2 minutes vs model group ([2]; 1.4 and 2.8 mg/kg, Day 7, P<0.05): obviously increased
- conversion from the peripheral type or the random type to the tendency type or the linear type in the strategy for looking for the platform ([2]; 1.4 and 2.8 mg/kg, P<0.05 or P<0.01): obviously increased
- adopted strategy for reaching the platform (the peripheral type and the random type %) [2, 5]: 75.00%
- orientation angle for reaching the platform [2, 5]: 64.44 ± 24.84 °
- speed for reaching the platform [2, 5]: 21.68 ± 6.14 cm/s
- swimming path length for reaching the platform [2, 5]: 1250.31 ± 599.61 cm
- time for reaching the platform [2, 5]: 60.40 ± 30.23 s
- adopted strategy for reaching the platform (the peripheral type and the random type %) [2, 6]: 92.50%
- orientation angle for reaching the platform [2, 6]: 63.00 ± 21.34 °
- speed for reaching the platform [2, 6]: 22.93 ± 7.28 cm/s
- swimming path length for reaching the platform [2, 6]: 1491.17 ± 529.46 cm
- time for reaching the platform [2, 6]: 75.55 ± 32.44 s
- adopted strategy for reaching the platform (the peripheral type and the random type %) [2, 7]: 87.50%
- orientation angle for reaching the platform [2, 7]: 75.34 ± 20.00 °
- speed for reaching the platform [2, 7]: 23.52 ± 5.71 cm/s
- swimming path length for reaching the platform [2, 7]: 1555.98 ± 522.10 cm
- time for reaching the platform [2, 7]: 69.25 ± 15.97 s
- adopted strategy for reaching the platform (the peripheral type and the random type %) [2, 8]: 86.00%
- orientation angle for reaching the platform [2, 8]: 52.13 ± 14.28 °
- speed for reaching the platform [2, 8]: 23.68 ± 5.10 cm/s
- swimming path length for reaching the platform [2, 8]: 1368.59 ± 636.46 cm
- time for reaching the platform [2, 8]: 55.04 ± 31.39 s
- adopted strategy for reaching the platform (the peripheral type and the random type %) [2, 9]: 65.00%
- orientation angle for reaching the platform [2, 9]: 48.91 ± 15.52 °
- speed for reaching the platform [2, 9]: 29.02 ± 6.70 cm/s
- swimming path length for reaching the platform [2, 9]: 917.85 ± 346.36 cm
- time for reaching the platform [2, 9]: 38.71 ± 18.28 s
- adopted strategy for reaching the platform (the peripheral type and the random type %) [2, 10]: 82.50%
- orientation angle for reaching the platform [2, 10]: 57.20 ± 22.99 °
- speed for reaching the platform [2, 10]: 28.32 ± 7.08 cm/s
- swimming path length for reaching the platform [2, 10]: 1025.55 ± 559.44 cm
- time for reaching the platform [2, 10]: 40.76 ± 23.88 s
- adopted strategy for reaching the platform (the peripheral type and the random type %) [2, 11]: 66.67%
- orientation angle for reaching the platform [2, 11]: 57.18 ± 14.54 °
- speed for reaching the platform [2, 11]: 26.27 ± 6.15 cm/s
- swimming path length for reaching the platform [2, 11]: 698.11 ± 448.85 cm
- time for reaching the platform [2, 11]: 29.31 ± 15.94 s
- adopted strategy for reaching the platform (the peripheral type and the random type %) [2, 12]: 65.00* %
- orientation angle for reaching the platform [2, 12]: 53.59 ± 14.56 °
- speed for reaching the platform [2, 12]: 25.25 ± 5.42 cm/s
- swimming path length for reaching the platform [2, 12]: 804.05 ± 351.90 cm
- time for reaching the platform [2, 12]: 30.21 ± 14.13 s
- adopted strategy for reaching the platform (the peripheral type and the random type %) [2, 13]: 60.00* %
- orientation angle for reaching the platform [2, 13]: 41.65 ± 17.28 °
- speed for reaching the platform [2, 13]: 24.59 ± 6.25 cm/s
- swimming path length for reaching the platform [2, 13]: 512.17 ± 265.98 cm
- time for reaching the platform [2, 13]: 21.75 ± 9.58 s
- adopted strategy for reaching the platform (the peripheral type and the random type %) [2, 14]: 69.00%
- orientation angle for reaching the platform [2, 14]: 55.89 ± 20.65 °
- speed for reaching the platform [2, 14]: 25.53 ± 8.12 cm/s
- swimming path length for reaching the platform [2, 14]: 838.00 ± 799.29 cm
- time for reaching the platform [2, 14]: 35.34 ± 35.48 s
- adopted strategy for reaching the platform (the peripheral type and the random type %) [2, 15]: 42.50** %
- orientation angle for reaching the platform [2, 15]: 50.23 ± 20.86 °
- speed for reaching the platform [2, 15]: 28.54 ± 9.09 cm/s
- swimming path length for reaching the platform [2, 15]: 461.53 ± 216.01 cm
- time for reaching the platform [2, 15]: 19.79 ± 10.95 s
- adopted strategy for reaching the platform (the peripheral type and the random type %) [2, 16]: 62.50* %
- orientation angle for reaching the platform [2, 16]: 57.00 ± 17.94 °
- speed for reaching the platform [2, 16]: 27.72 ± 6.59 cm/s
- swimming path length for reaching the platform [2, 16]: 827.58 ± 463.98 cm
- time for reaching the platform [2, 16]: 22.79 ± 10.04 s
- adopted strategy for reaching the platform (the peripheral type and the random type %) [2, 17]: 67.00%
- orientation angle for reaching the platform [2, 17]: 62.38 ± 27.61 °
- speed for reaching the platform [2, 17]: 24.14 ± 7.38 cm/s
- swimming path length for reaching the platform [2, 17]: 878.23 ± 464.48 cm
- time for reaching the platform [2, 17]: 71.16 ± 34.92 s
- adopted strategy for reaching the platform (the peripheral type and the random type %) [2, 18]: 60.00%
- orientation angle for reaching the platform [2, 18]: 55.03 ± 19.71 °
- speed for reaching the platform [2, 18]: 29.15 ± 10.97 cm/s
- swimming path length for reaching the platform [2, 18]: 515.67 ± 565.72 cm
- time for reaching the platform [2, 18]: 16.28 ± 11.42 s
- adopted strategy for reaching the platform (the peripheral type and the random type %) [2, 19]: 57.50%
- orientation angle for reaching the platform [2, 19]: 55.78 ± 27.48 °
- speed for reaching the platform [2, 19]: 27.44 ± 4.86 cm/s
- swimming path length for reaching the platform [2, 19]: 676.75 ± 429.93 cm
- time for reaching the platform [2, 19]: 21.57 ± 17.15 s
- adopted strategy for reaching the platform (the peripheral type and the random type %) [2, 20]: 66.60%
- orientation angle for reaching the platform [2, 20]: 46.48 ± 22.04 °
- speed for reaching the platform [2, 20]: 22.02 ± 6.73 cm/s
- swimming path length for reaching the platform [2, 20]: 606.62 ± 360.87 cm
- time for reaching the platform [2, 20]: 37.72 ± 30.12 s
- adopted strategy for reaching the platform (the peripheral type and the random type %) [2, 21]: 60.00* %
- orientation angle for reaching the platform [2, 21]: 53.94 ± 12.47 °
- speed for reaching the platform [2, 21]: 23.52 ± 2.43 cm/s
- swimming path length for reaching the platform [2, 21]: 393.13 ± 236.85 cm
- time for reaching the platform [2, 21]: 16.62 ± 8.69 s
- adopted strategy for reaching the platform (the peripheral type and the random type %) [2, 22]: 55.00* %
- orientation angle for reaching the platform [2, 22]: 52.70 ± 15.27 °
- speed for reaching the platform [2, 22]: 23.55 ± 2.66 cm/s
- swimming path length for reaching the platform [2, 22]: 433.81 ± 327.88 cm
- time for reaching the platform [2, 22]: 18.98 ± 13.68 s
- Average speed [2, 23]: 24.04 ± 7.96 cm/s
- Number of crossing the platform [2, 23]: 5.55 ± 4.47
- Orientation angle [2, 23]: 5.56 ± 4.47 °
- Swimming path length in the platform area/total swimming path length × 100% [2, 23]: 26.83 ± 7.77%
- Time in the platform area [2, 23]: 1.86 ± 1.78 s
- Time in the platform quadrants [2, 23]: 33.93 ± 11.68 s
- Average speed [2, 24]: 28.44 ± 9.02 cm/s
- Number of crossing the platform [2, 24]: 12.20 ± 5.99
- Orientation angle [2, 24]: 12.20 ± 5.99 °
- Swimming path length in the platform area/total swimming path length × 100% [2, 24]: 31.89 ± 9.92%
- Time in the platform area [2, 24]: 3.18 ± 2.02 s
- Time in the platform quadrants [2, 24]: 40.31 ± 12.72 s
- Average speed [2, 25]: 26.15 ± 5.40 cm/s
- Number of crossing the platform [2, 25]: 10.40 ± 4.40
- Orientation angle [2, 25]: 10.40 ± 4.40 °
- Swimming path length in the platform area/total swimming path length × 100% [2, 25]: 28.40 ± 8.75%
- Time in the platform area [2, 25]: 3.23 ± 3.70 s
- Time in the platform quadrants [2, 25]: 33.72 ± 10.48 s
- LD50 [3]: 110 ± 9.1 mg/kg
- LD50 as multiple of the clinical daily dosage [4]: ~824.3 times

Reference: patent publication US12215085B2 (priority 2019, dated 2025)
